# Test results: US9162992B2, “Compounds and compositions for treatment of breathing control disorders or diseases” (GALLEON PHARMACEUTICALS, INC., priority 2010, dated 2015)
# System: hypercapnic ventilatory response
# Assay: Hypercapnic ventilatory response (HCVR, 3% CO2), rat plethysmography
# Format: in vivo
# Conditions: for hypercapnia ventilatory response (HCVR): 3% CO2
# Experimental: A 1.5 mg/mL stock was created to give an infusion dose of 0.10 mg/kg/min. A separate 0.45 mg/mL stock was created to give an infusion dose of 0.03 mg/kg/min. All compound solutions and vehicles were titrated to have a pH between 4-8, using a pH paper and titrating with NaOH or HCl solution.
# Male Sprague-Dawley rats (Harlan, Inc.), 250-350 g at time of dosing, had been surgically prepared by Harlan to contain jugular vein cannulas. A 12 chamber plethysmography system with temperature/humidity compensation (Epstein et al., 1980, J. Apply Physiol. 49:1107-1115) from Buxco, Inc. (PLY 3223; Buxco, Inc, Wilmington, N.C., USA) using Biosystem XA software, v2.11.1 and a customized 12 site automated infusion system (Harvard Apparatus, Instech, Inc). Gas mixer (CWE Inc.) was used for this experiment to give concentrations of hypercapnia (3% CO2, 21% O2, balance nitrogen). Three tanks containing 100% O2, CO2, and nitrogen were attached to the gas mixer, with the customized gas mixture fed to each plethysmograph at a rate of 2 L/min.
# Rat whole body plethysmography was used to evaluate and quantify minute ventilation and the pattern of breathing. A respiratory waveform was generated from the exchange of air between the animal and the chamber. This exchange induced changes in air volume that were measured with a pressure transducer, constituting the respiratory waveform (Lomask M., 2005, “Respiration measurement in the whole body plethysmography,” Buxco Inc., retrieved from http://www dot buxco dot com/downloads/LomaskWBP dot pdf). Atmospheric temperature and humidity were also measured using temperature and humidity probes that sampled chamber conditions. A compensation factor was then determined and applied to the respiratory waveform using a standardized algorithm (Epstein et al., 1980, J. Apply Physiol. 49:1107-1115) to compensate for respiratory conditioning, which was reported as the parameter COMP.
# All animals were acclimated to plethysmography chambers for at least 1 hour, or until animals were no longer restless (up to 2 hours prior to data collection). Minute ventilation (MV) was calculated by the Biosystem XA software from direct measurements of tidal volume (TV) and respiratory frequency (f) using the formula MV=TV×f. Minute ventilation (mL/min) is a common endpoint for evaluating ventilatory performance. The protocol included compound (XXXVI) given as a 20 minute infusion, followed by a 20 minute exposure to 3% hypercapnia in addition to the compound (XXXVI) infusion. After 20 minutes of hypercapnia, the compound (XXXVI) infusion continued for an additional 10 minutes, resulting in a total compound (XXXVI) infusion time of 50 minutes. Each experiment included 6 animals receiving compound (XXXVI) (0.03 or 0.10 mg/kg/min) tested against 6 animals receiving vehicle, all of which were challenged with hypercapnia (3%). Animals were continuously monitored and observed for adverse behavioral effects. Such findings were recorded into laboratory notebooks for each individual animal tested.
# Respiratory data was collected on a breath-by-breath basis and averaged into 1 min time bins for data analysis. […] Each parameter was compared to vehicle in order to calculate percent difference, using area under the curve (AUC) and peak response values for each defined acquisition period using a customized visual basic restructure analysis macro (Lopotosky, S. Galleon Buxco Restructure tool, v5.2, 2008). All of the data analysis for the single, stand-alone studies was done using the restructure analysis macro (Lopotosky, S. Galleon Buxco Restructure tool, v5.2, 2008). All merged data analysis with both doses was performed in Graphpad Prism for MV, TV, and f only, for hypercapnia studies. Additionally, percent increase was calculated based on the cohort average immediately prior to the hypercapnic challenge to the group's peak response. For merged hypercapnia studies, t=62 to t=67 was used.
smiles,measurement,setting,value
"CCCNc1nc(NCCC)nc(N(C)OC)n1.O=S(=O)(O)O [XXXVI, N-(4,6-Bis-n-propylamino-[1,3,5]triazin-2-yl)-N,O-dimethyl-hydroxylamine hydrogen sulfate]",facilitation of the HCVR,"0.03 mg/kg/min (same as vehicle group), t=62 to t=67",60%
same,respiration in naive animals,0.03 mg/kg/min IV infusion,little or no effect
same,hypercapnia ventilatory response (HCVR),0.03 mg/kg/min,no effect
same,respiration in naive animals,0.10 mg/kg/min IV infusion,stimulated respiration in naive animals
same,hypercapnia ventilatory response (HCVR),0.10 mg/kg/min,augmentation of the hypercapnia ventilatory response (HCVR)
same,increase in MV during the HCVR challenge,"0.10 mg/kg/min, t=62 to t=67, on top of elevated MV due to compound alone",44%
same,adverse clinical observations,"rats, doses tested",no adverse clinical observations
